Test results published in patent publication US5753623A, “Method of treatment for depression” (Connetics Corporation, priority 1995, dated 1998).

What was measured:
[1] = Serum concentrations of relaxin in the ongoing clinical trials; type: in vivo, human
Procedure: While human dosage levels for treating depression have yet to be optimized for relaxin, generally, a daily dose is from about […] of body weight per day, preferably about […] μg/kg, and most preferably about 12.0 to 100.0 μg/kg. Generally it is sought to obtain a serum concentration of relaxin approximating or greater than normal circulating levels in pregnancy, i.e., 1.0 ng/ml, such as 0.5 to 50 ng/ml, preferably 1.0 to 20 ng/ml. […] Thus, for administration to a 70 kg person, the dosage range would be about 7.0 μg to 3.5 mg per day, preferably about […] to 2.1 mg per day, and most preferably about […] per day. The amount of relaxin administered will, of course, be dependent on the subject and the severity of the affliction, the manner and schedule of administration and the judgment of the prescribing physician. One treatment regimen can employ a higher initial dosage level (e.g., 100 to 200 μg/kg/day) followed by decreasing dosages to achieve steady relaxin serum concentration of about 1.0 ng/ml. Another treatment regimen, particularly for postpartum depression, entails administration of an amount of relaxin sufficient to attain normal pregnancy levels of relaxin (about 1.0 ng/ml) followed by gradual decreasing dosages until relaxin serum levels are no longer detectable (e.g., less than about 20 pg/ml), optionally discontinuing treatment upon reaching that dosage level.

[2] = system: Male Lewis mice; assay: Mouse forced swimming wheel model; type: in vivo; settings: 50 μg/kg/day subcutaneous, two hours before the test, versus placebo control
Procedure: This is a modification of the forced swimming wheel test described by Kasahara, et al., Life Sci., 52(22):1741-1749 (1993).
Male Lewis mice are divided into control and treatment groups. Two hours before the test, the control and treatment groups, respectively, receive subcutaneous injections of placebo or 50 μg/kg/day of recombinant human relaxin (H2) formulated as described in allowed U.S. Ser. No. 08/050,745. The mice are individually placed in the swimming wheel and the number of turns of the wheel is recorded for each. Antidepressant activity is indicated by an increased number of turns in the treatment group.

[3] = Serum relaxin concentrations after single subcutaneous administration to a scleroderma patient; type: in vivo, human; settings: 10 μg/kg single subcutaneous injection
Procedure: FIG. 1 is a graph showing serum relaxin concentration (ng/ml) as measured against time after administration of a single subcutaneous dose of 10 μg/kg to a scleroderma patient.
Relaxin (10 μg/kg) was administered as a single subcutaneous injection to a scleroderma patient. Blood samples were obtained at timed intervals and measured for serum relaxin concentration (ng/ml). Peak serum concentration was attained at about 2 hours post dosing.

[4] = system: patient with severe systemic scleroderma; assay: Human antidepressant activity, dose ranging phase (Example 3); type: in vivo; settings: 0.5 mg bolus subcutaneous
Procedure: A patient diagnosed as having severe systemic scleroderma with systemic sclerosis, was undergoing compassionate use therapy with relaxin. In a dose ranging phase of the therapy, recombinant human relaxin (H2) in a buffered citrate solution adjusted to Ph 5.0 was administered as a bolus subcutaneous injection of 0.5 mg.

[5] = system: patient with severe systemic scleroderma; assay: Human antidepressant activity, missed doses and readministration (Example 4); type: in vivo
Procedure: A patient diagnosed as having severe systemic scleroderma with systemic sclerosis, was undergoing compassionate use therapy with relaxin. They were being treated with 1.5 mg per day of recombinant human relaxin (H2) in a buffered citrate solution adjusted to pH 5.0, divided into six equal doses by subcutaneous injection to achieve a circulating concentration of about 1.0 ng/ml.

[6] = system: patients; assay: Relaxin treatment regimen with gradually decreased dosage (Example 5); type: in vivo, human; settings: about 6 μg/kg, then dosage gradually decreased to minimum dose or zero
Procedure: Relaxin is administered in patient-dependent doses (about 6 μg/kg) sufficient to maintain serum concentrations of at least about 1.0 ng/ml (approximating relaxin concentration during pregnancy).

[7] = system: female subjects after childbirth; assay: Clinical trial for treatment of postpartum depression (Example 6); type: in vivo, human; settings: osmotic pump 50 μg/kg/day subcutaneous from three days after childbirth, three months, versus placebo
Procedure: One hundred pregnant female subjects are monitored for relaxin serum concentration during the course of their pregnancy. The subjects are randomized and divided into treatment and control groups. Three days after childbirth, in the treatment group, relaxin is administered by subcutaneous placement of a relaxin-containing osmotic pump delivering 50 μg/kg/day of recombinant human relaxin (H2); in the control group, placebo is administered by subcutaneous placement of a placebo-containing osmotic pump. The subjects are required to maintain a diary documenting their mood (e.g., joy/euphoria/depression/anxiety) over a period of three months following placement of the drug/placebo. The same is documented, along with relaxin serum concentration, by weekly visits to the treating physician.

[8] = system: scleroderma patients; assay: Monitoring of overall wellbeing in Phase I clinical trials in scleroderma patients; type: in vivo, human
Source text: Recombinant human relaxin (H2) in currently in Phase I human clinical trials in scleroderma patients. Scleroderma is a disease involving an imbalance in tissue reformation giving rise to the overproduction of collagen, and ultimately resulting in swelling and hardening of the skin (and affected organs).
Relaxin is currently the subject of Phase I clinical trials involving scleroderma patients. Scleroderma is a disease involving an imbalance in tissue reformation giving rise to the overproduction of collagen, and ultimately resulting in swelling and hardening of the skin (and affected organs). Part of the clinical testing of relaxin in scleroderma patients included the monitoring of overall wellbeing.

Q: For relaxin, which serum concentration ([1]; dosage of about 6.0 μg/kg, printed spread ±0.3) is on record?
A: about 1.8 ng/ml

Q: What about the serum concentration ([1]; dosage of about 12.0 μg/kg, printed spread ±0.6) of the same substance?
A: ~3.6 ng/mL

Q: What about the serum concentration ([1]; dosage of about 50 μg/kg, printed spread ±1.6) of the same substance?
A: ~11.8 ng/mL

Q: And the “number of turns of the swimming wheel” value [2]?
A: increased number of turns as compared to the control group

Q: What about the “time to peak serum concentration” value [3] of the same substance?
A: about 2 hours

Q: And the patient-reported mood symptoms ([4]; about seven hours post dosing)?
A: significant anxiety/depression-like symptoms

Q: And the relaxin serum concentration ([4]; about seven hours post dosing, approximated)?
A: below 1 ng/ml

Q: What about the patient-reported wellbeing ([4]; about two hours post dosing (approximating peak serum concentration)) of the same substance?
A: significant improvement in wellbeing

Q: And the “mood after several missed doses” value ([5]; 1.5 mg per day in six subcutaneous doses, doses inadvertently missed)?
A: feelings similar to those they had previously experienced in the postpartum period

Q: And the “clearing of the "blues" after readministration” value ([5]; 1.5 mg per day in six subcutaneous doses, readministration after missed doses)?
A: cleared within hours of readministration

Q: What about the “episodes of depression during uninterrupted treatment” value ([5]; following year, patient not withdrawn from treatment) of the same substance?
A: no similar episodes of depression were experienced

Q: And the “depression associated with withdrawal” value [6]?
A: do not experience depression associated with precipitous withdrawal

Q: What about the “signs of postpartum depression” value [7] of the same substance?
A: fewer signs of postpartum depression than the subjects in the control group

Q: And the “effect of discontinuation of therapy on mood” value ([8]; discontinuation of therapy)?
A: malaise described as best comparable to postpartum depression

Q: What about the reversibility of malaise ([8]; resumption of treatment) of the same substance?
A: reversible upon resumption of treatment

Q: And the mood during treatment ([8]; treatment of scleroderma with relaxin)?
A: mood elevations corresponded to peak dosing periods
